Experiments:
[1] = Tolerability in dogs: daily observations, body weights, blood chemistry; type: in vivo, Beagle dogs
Procedure: Ragweed sensitized beagle dogs (n=5) with preexisiting nasal and airway allergic responses were utilized in the animal study described in this Example. Dogs served as their own control and initially were treated with vehicle (sterile water) and then rested for 5 weeks prior to receiving the test compound. […] Based on the aerosol testing only 1.6 mg/dog could be delivered by inhalation during a 15 minute exposure (20 mg/ml solution). In addition, each dog received twice daily an intranasal instillation of 30 mg (2×375 μl of 20 mg/ml in each nostril) given within 30 minutes after the end of the inhalation exposures.
Vehicle (sterile water) was given twice daily by inhalation (15 minutes) followed by intranasal instillation of water (2×250 μl in each nostril). […] The test-article and the compound solution were prepared in the morning of each treatment day. Vehicle and test-article were administered by inhalation and intranasal instillation twice a day. Dosing of vehicle or test compound was achieved by utilizing a face mask connected to a jet nebulizer for inhalation delivery followed by intranasal instillation in both nostrils using an Accuspray device.
Blood sample was collected by placing a venous (cephalic or saphenous) catheter in the leg prior to anesthesia or by venipuncture (jugular) using a syringe or needle-vacutainer. […]

[2] = system: human subject having a respiratory condition; assay: Application of CGP (forced nasal lavage, spray/mist) to a human subject with post nasal drip, nasal obstruction and chronic cough; type: in vivo; settings: one subject
Source text: CGP was incorporated into samples of a lavage or a spray product at varying concentrations, along with different sweetening/moisturizing components (sorbitol, glycerin) at varying levels (0.5% to 7.5% by weight), appropriate food/drug grade fungistats and bacteristats (methyl paraben and benzalkonium chloride), and light flavorings of several types (peppermint, spearmint and orange) in some iterations.
A first human subject for laboratory/home trials was a person in good general health. […] The subject has experienced a decades-long post nasal drip (PND) as an adult, nasal obstruction (mucus, septum). The subject has experienced coughs that have been of weeks-long and, on occasion, months-long duration, following seasonal flu or colds. The subject has experienced chronic throat-clearing from PND and chronic cough even when not post-respiratory illness, which they ascribe to bronchitis. […] The subject breathed almost exclusively through mouth as a child because of nasal obstruction. The subject breathes through both nose and mouth as an adult, with breathing through nose occasionally mildly problematic, requiring active conscious engagement, although the subject was never “short of breath” in terms of lung capacity, etc.
The subject performed forced nasal lavage once daily for about two weeks. The forced nasal lavage was conducted intranasally over skin and normally in a shower. An aqueous solution or suspension of CGP at various concentration, such as about 7.5%, 3.75%, 2.5%, 2%, 1.5% by weight of dry CGP, was forced into one nostril and out of the other nostril using a closed plastic bottle with an internal stem feed. This procedure was repeated for each side of the nostrils. Some product was swallowed via nasal route and there was approx. 2 oz. fluid per nostril.
The subject applied CGP into their nostrils in a spray or a mist. A closed small plastic bottle with internal stem feed constructed to deliver fluid contents as mist was used. Typically, one application was performed in the morning. Each application consisted of two sprays per nostril, alternating sides, with full simultaneous deep breath inhalation or inspiration to draw the product up the nose and into the airway passages. The spray was also, on occasion, applied directly through the mouth to the throat with 1 or 2 sprays per application. An average spray delivery contained about 200 mg of a formulation of CGP per squeeze. The formulation contained about 2% to about 3.75% by weight of dry CGP.
In addition to the routine application of CGP to prevent or control symptoms associated with the respiratory system, the subject has also used CGP to relieve symptoms during an episode of a condition of airway/upper respiratory tract. […] At about 10:45 A.M., the subject applied a double-dose of NasoCell (1.75% CGP by weight) via nasal inhalation in each nostril. At about 11:30 AM, the subject's symptoms were much improved. The subject then self-administered another dose of NasoCell in each nostril. […] The subject had no trouble breathing while they were eating during lunch. […] The subject's throat was cleared of any obstructions and breathing sounds, and was wide open. The subject's nasal passages were reopened and voice cleared from an earlier morning huskiness, characteristic of a post nasal drip condition. It is noteworthy that this subject observed that after some weeks of usage, much reduced usage was required to “maintain”, and that this included the skipping of usage altogether, some days.

[3] = system: human subject having asthma; assay: Application of CGP composition to a human subject having asthma; type: in vivo
Source text: A CGP composition similar to that described in Example 3, containing about 2% (w/w) CGP, was used in this study. A second human subject, a person having a life history of asthma, participated in this study.
The subject intentionally stopped using Advair Diskus (steroid) for about 2 weeks. Their allergies to molds were triggered by a ‘musty’ indoor environment resulting from several rainy and humid days. The allergies in turn triggered their asthma. The subject had felt a slight reduction in their airflow capacity for a few days, but had withheld use of albuterol inhaler (asthma rescue medication) during the day and only used it for severe wake-ups during the night. The subject had to use albuterol inhaler for three contiguous nights prior to the night described below.
In that night, at about 8:30 PM, the subject was experiencing difficulty breathing and wheezing, which signaled the start of an asthma attack. At about 8:35 PM, the subject applied two sprays of the CGP composition into each nostril and one spray of the CGP composition into their mouth for inhalation. An average spray delivery contained about 200 mg of the composition. […] At about 8:52 PM, the subject did two additional oral inhalations of the composition. At about 8:55 PM, the subject noticed that their wheeze and tightness in chest were relieved about 80% or more. All nasal drips had been sniffed back in. At about 8:58 PM, the subject perceived a gradual improvement and experienced no labor in breathing. At about 9:05 PM, the subject felt better, but desired full relief and wanted to increase breathing capacity. They applied one inhalation of the composition into each nostril; paused to get full breath, then applied two deep oral inhalations of the composition at about 9:07 PM. At about 9:27 PM, the subject felt fine and substantially back to normal. At about 9:37 PM, the subject felt improved. At about 10:16 PM, the subject felt fully (100%) recovered. At about 11:00 PM, the subject felt fine, no worry, and went to bed. […] At about 8:00 AM the next day, the subject felt a little tightness in chest. Instead of using 2 puffs of albuterol to start the day as they normally did, the subject used the CGP composition. They applied two sprays of the composition into each nostril and two sprays of the composition into their mouth for inhalation.

[4] = forced nasal lavage or spray/mist

calcium glycerophosphate
daily observations, adverse health effects ([1]; dog, in vivo): No adverse health effects were found
tolerability ([1]; dogs, BID inhalation + intranasal instillation, Days 0 to 5): well tolerated
coughing [2, 4]: complete cessation of coughing
reduction of post nasal drip [2, 4]: 95-98%
decreased drainage ([2]; forced nasal lavage, 1.5-7.5% by weight CGP, about 10-20 minutes after the lavage): 90%
throat-clearing diminished compared with prior state ([2]; forced nasal lavage, about 20-60 minutes after the lavage): about 90%
symptoms (drip, cough, breathing) ([2]; forced nasal lavage, about 1 hr to 12/24 hr after the lavage): no drip, no cough, and easy open breathing
onset of relieving effects ([2]; nasal spray/mist, about 2% to 3.75% by weight CGP, two sprays per nostril): almost instantaneously upon application
duration of benefits post application ([2]; nasal spray/mist, about 2% to 3.75% by weight CGP): about four to eight hours
night breathing ([2]; single spray per nostril at bedtime): appeared to produce better night breathing
relief of tightness in chest next morning ([3]; about 8:00 AM next day, two sprays each nostril and two sprays into mouth instead of albuterol): felt relief and no need to use the albuterol inhaler
relief at start of an asthma attack ([3]; about 8:40 PM, 5 min after first sprays, composition about 2% (w/w) CGP, one subject): mild relief
wheeze and tightness in chest relieved ([3]; about 8:55 PM, after nasal sprays and oral inhalations from 8:35 PM, about 2% (w/w) CGP): ≥ 80%
subject felt recovered ([3]; about 10:16 PM, first application 8:35 PM, about 2% (w/w) CGP): 100%
night wake-up and inhaler use ([3]; night after the treated attack): no wake-up with shortness of breath and did not use inhaler during the night

From US9861647B2 (Prelief Inc., priority 2007, dated 2018)
